Results: patent publication US20250368767A1, “POLYMER FOR INHIBITING SARS-COV-2 AND OTHER PATHOGENS” (FREIE UNIVERSITÄT BERLIN, priority 2022, published 2025)

How the values were obtained:
[1] = tested on: wild-type (WT) SARS-CoV-2; assay type: cell-based; conditions: plaque reduction assay
zeta potential = assay type: physicochemical
Protocol: Overall negative charge of the polymers owing to sulfate groups was confirmed by very high negative value of zeta potential (cf. Table 9). To check the morphology of P1 in aqueous solution, cryo-electron microscopy (cryo-EM) was performed. In accordance with the inventors' hypothesis, worm-like defined fibers having a length between approximately 150 nm and 215 nm were observed. Tomography of the sample was measured to calculate accurate length and width of the fibers.

Substance: Heparin
- IC50 (μg/mL) against SARS-CoV-2 [1]: 1383.0 ± 255.1 µg/mL
- IC50 ([1]; read-out: IC50 (μM) against SARS-CoV-2): 92.3 ± 19.4 µM
- ξ potential (mV) (zeta potential): −31.2 ± 3.9 mV
